Measured values as given in US9258995B2, “Organ cold storage composition and methods of use” (BOARD OF TRUSTEES OF THE UNIVERSITY OF ARKANSAS, priority 2009, dated 2016).

How the values were obtained:
rat kidneys = assay: TUNEL staining of renal cell death during CS; settings: 4 h CS, 100 μM
Protocol: All animals were treated according to the National Institutes of Health Guide for the Care and Use of Laboratory Animals and the University of Arkansas for Medical Sciences Institutional Animal Care and Use Committee guidelines. Male Fischer 344 inbred rats (Charles Rivers Laboratories, Inc., Wilmington, Mass.) weighing between 250 and 300 g were anesthetized with ethrane, followed by shaving and prepping with betadine. […] Bulldog clamps were placed on the aorta and vena cava (proximal and distal to the renal vessels) to prevent blood flow to the kidneys. A 22-gauge surgical needle was used to puncture the rat's aorta to flush the renal grafts with saline (10 ml per kidney) using a small catheter. Once the kidneys started to turn light brown (perfusion), another vent was formed in the vena cava to allow blood flow from the kidneys. […]
Cell cytotoxicity was determined using the LDH-Cytotoxicity Assay Kit II (Biovision Research Products, Mountain View, Calif.) according to the manufacturer's instructions. Absorbance was measured at 450 nm using a SpectraMax 190 microplate reader and SpectraMax software (Molecular Devices, Sunnyvale, Calif.). Renal cell death was determined using TUNEL staining. […] The amount of cell death was calculated by averaging the number of cells positive for TUNEL (brown staining) in 10 different fields (cortex and medulla) (20×). […]

[1] = patients with chronic hepatitis C virus infection, phase II clinical trials; cited from earlier work
[2] = system: porcine renal mitochondrial respiratory complex I; assay: Mitochondrial respiratory complex activity, porcine ex vivo renal model
Protocol: (§1) FIG. 15 depicts graphs showing activities or (A) porcine renal mitochondrial respiratory complex I, (B) activities or porcine renal mitochondrial respiratory complex II/III, and (C) activities or porcine renal mitochondrial respiratory complex IV, after MitoQ treatment. MitoQ ([…]) protected porcine complex II/III following 24 hr cold preservation. Values are expressed as mean SEM (n=4).
(§2) Mitochondrial respiratory complex activity was also evaluated in the porcine ex vivo renal model at 24-h and 48-h CS. […] Protection of Complex II/III by MitoQ (100 μM) was significant following 24-h cold preservation.

[3] = system: porcine renal mitochondrial respiratory complex IV; assay: as above
Protocol: as §1, §2

## COC1=C(OC)C(=O)C(CCCCCCCCCC[P+](c2ccccc2)(c2ccccc2)c2ccccc2)=C(C)C1=O [MitoQ, mitoquinone]
Rat kidneys
  decrease of cell death (TUNEL) compared with CS kidneys: ~2 fold
[1]
  liver damage: reduce liver damage
[2]
  protection of Complex I activity, 24-h versus 48-h CS: at 24-h better than at 48-h
[3]
  protection of Complex IV activity, 24-h versus 48-h CS: at 24-h better than at 48-h
